Experimental data published in article PMC5218480 (PLoS ONE, 2017).

Tested on: MV-4-11 cells
Experiment: Gene expression microarray analysis (Affymetrix PrimeView) and GSEA
Assay type: cell-based, human
Design: RFU PODN (11730768_x_at) / Fold change /veh PODN (11730768_x_at) / RFU LINC00158 (11744669_a_at) / Fold change /veh LINC00158 (11744669_a_at) / RFU DUSP10 (11751237_a_at) / Fold change /veh DUSP10 (11751237_a_at) / RFU ID3 (11757404_x_at) / Fold change /veh ID3 (11757404_x_at) / RFU PLEKHG5 (11737974_s_at) / Fold change /veh PLEKHG5 (11737974_s_at) / RFU LRRC4B (11730491_at) / Fold change /veh LRRC4B (11730491_at) / RFU GIMAP4 (11747438_a_at) / Fold change /veh GIMAP4 (11747438_a_at) / RFU KRT8 (11758183_x_at) / Fold change /veh KRT8 (11758183_x_at) / RFU CNN1 (11734310_a_at) / Fold change /veh CNN1 (11734310_a_at) / RFU VPS37D (11726825_at) / Fold change /veh VPS37D (11726825_at) / RFU C10orf10 (11716522_x_at) / Fold change /veh C10orf10 (11716522_x_at) / RFU KIR2DL2 /// KIR2DL4 /// KIR2DL5A /// KIR2DL5B /// KIR2DS1 /// KIR2DS2 /// KIR2DS3 /// KIR2DS4 /// KIR3DL3 /// KIR3DL3 /// KIR3DS1 (11738374_at) / Fold change /veh KIR2DL2 /// KIR2DL4 /// KIR2DL5A /// KIR2DL5B /// KIR2DS1 /// KIR2DS2 /// KIR2DS3 /// KIR2DS4 /// KIR3DL3 /// KIR3DL3 /// KIR3DS1 (11738374_at) / RFU C1QL1 (11718748_at) / Fold change /veh C1QL1 (11718748_at) / RFU TMPRSS4 (11747572_a_at) / Fold change /veh TMPRSS4 (11747572_a_at) / RFU HAMP (11756126_x_at) / Fold change /veh HAMP (11756126_x_at) / RFU RNFT2 (11725882_a_at) / Fold change /veh RNFT2 (11725882_a_at) / RFU NR4A2 (11747474_a_at) / Fold change /veh NR4A2 (11747474_a_at) / RFU ABCC12 (11746883_a_at) / Fold change /veh ABCC12 (11746883_a_at) / RFU TMEM136 (11760407_x_at) / Fold change /veh TMEM136 (11760407_x_at) / RFU CLDN22 /// WWC2 (11732394_at) / Fold change /veh CLDN22 /// WWC2 (11732394_at) / RFU HLA-DPB1 (11760878_x_at) / Fold change /veh HLA-DPB1 (11760878_x_at) / RFU SPINT1 (11716480_a_at) / Fold change /veh SPINT1 (11716480_a_at) / RFU GAP43 (11754022_s_at) / Fold change /veh GAP43 (11754022_s_at) / RFU A4GNT (11735810_at) / Fold change /veh A4GNT (11735810_at) / RFU PRB3 (11715151_x_at) / Fold change /veh PRB3 (11715151_x_at) / RFU TUBB4B (11761932_at) / Fold change /veh TUBB4B (11761932_at) / RFU CAPN14 (11732068_a_at) / Fold change /veh CAPN14 (11732068_a_at) / RFU TMCC2 (11721928_a_at) / Fold change /veh TMCC2 (11721928_a_at) / RFU IRGQ (11745062_a_at) / Fold change /veh IRGQ (11745062_a_at) / RFU FAM174B (11720279_a_at) / Fold change /veh FAM174B (11720279_a_at) / RFU TMPRSS4 (11748680_a_at) / Fold change /veh TMPRSS4 (11748680_a_at) / RFU FAM212B (11763350_a_at) / Fold change /veh FAM212B (11763350_a_at) / RFU PLEKHG5 (11743358_a_at) / Fold change /veh PLEKHG5 (11743358_a_at) / RFU ZSCAN30 (11745921_a_at) / Fold change /veh ZSCAN30 (11745921_a_at) / RFU CMKLR1 (11741424_a_at) / Fold change /veh CMKLR1 (11741424_a_at) / RFU LOC101060620 /// MAPK8IP1 (11723275_at) / Fold change /veh LOC101060620 /// MAPK8IP1 (11723275_at) / RFU SPTSSB (11747773_x_at) / Fold change /veh SPTSSB (11747773_x_at) / RFU PRSS12 (11739890_at) / Fold change /veh PRSS12 (11739890_at) / RFU BIN1 (11741810_x_at) / Fold change /veh BIN1 (11741810_x_at) / RFU WNT11 (11732464_a_at) / Fold change /veh WNT11 (11732464_a_at) / RFU C10orf10 (11716521_a_at) / Fold change /veh C10orf10 (11716521_a_at) / RFU C5orf56 (11738089_at) / Fold change /veh C5orf56 (11738089_at) / RFU CYB561 (11721691_x_at) / Fold change /veh CYB561 (11721691_x_at) / RFU ANKRD19P (11752326_a_at) / Fold change /veh ANKRD19P (11752326_a_at) / RFU OR2T12 /// OR2T33 /// OR2T8 (11738714_s_at) / Fold change /veh OR2T12 /// OR2T33 /// OR2T8 (11738714_s_at) / RFU VCAN (11748164_a_at) / Fold change /veh VCAN (11748164_a_at) / RFU JSRP1 (11732532_at) / Fold change /veh JSRP1 (11732532_at) / RFU KRTAP10-11 (11738290_x_at) / Fold change /veh KRTAP10-11 (11738290_x_at) / RFU MYO3A (11730013_a_at) / Fold change /veh MYO3A (11730013_a_at) / RFU EBF3 (11725865_a_at) / Fold change /veh EBF3 (11725865_a_at) / RFU CAMK2N1 (11719241_x_at) / Fold change /veh CAMK2N1 (11719241_x_at) / RFU C5orf56 (11738088_a_at) / Fold change /veh C5orf56 (11738088_a_at) / RFU OLFML3 (11715873_a_at) / Fold change /veh OLFML3 (11715873_a_at) / RFU LOC100653217 /// NTM (11731650_a_at) / Fold change /veh LOC100653217 /// NTM (11731650_a_at) / RFU MAPK11 (11762145_a_at) / Fold change /veh MAPK11 (11762145_a_at) / RFU FIZ1 (11724087_x_at) / Fold change /veh FIZ1 (11724087_x_at) / RFU OASL (11726364_x_at) / Fold change /veh OASL (11726364_x_at) / RFU SOX15 (11748057_x_at) / Fold change /veh SOX15 (11748057_x_at) / RFU CD79A (11719716_a_at) / Fold change /veh CD79A (11719716_a_at) / RFU HIST1H1D (11736915_at) / Fold change /veh HIST1H1D (11736915_at) / RFU CASKIN2 (11723855_a_at) / Fold change /veh CASKIN2 (11723855_a_at) / RFU LOC730098 (11760151_x_at) / Fold change /veh LOC730098 (11760151_x_at) / RFU OR4N2 (11742367_at) / Fold change /veh OR4N2 (11742367_at) / RFU PRRT2 (11749266_a_at) / Fold change /veh PRRT2 (11749266_a_at) / RFU SNX32 (11753110_a_at) / Fold change /veh SNX32 (11753110_a_at) / RFU CDHR5 (11726645_a_at) / Fold change /veh CDHR5 (11726645_a_at) / RFU RCAN1 (11760418_a_at) / Fold change /veh RCAN1 (11760418_a_at) / RFU FAM167A (11723789_a_at) / Fold change /veh FAM167A (11723789_a_at) / RFU FAM26E (11764081_at) / Fold change /veh FAM26E (11764081_at) / RFU ISYNA1 (11749810_s_at) / Fold change /veh ISYNA1 (11749810_s_at) / RFU ACY1 (11761880_at) / Fold change /veh ACY1 (11761880_at) / RFU 11764098_at / Fold change /veh 11764098_at / RFU SAMD14 (11745864_x_at) / Fold change /veh SAMD14 (11745864_x_at) / RFU NPB (11741838_a_at) / Fold change /veh NPB (11741838_a_at) / RFU TMPRSS6 (11731388_a_at) / Fold change /veh TMPRSS6 (11731388_a_at) / RFU KRTAP10-2 (11738614_at) / Fold change /veh KRTAP10-2 (11738614_at) / RFU ARHGAP8 /// PRR5-ARHGAP8 (11727945_x_at) / Fold change /veh ARHGAP8 /// PRR5-ARHGAP8 (11727945_x_at) / RFU KRTAP5-7 /// NADSYN1 (11734609_at) / Fold change /veh KRTAP5-7 /// NADSYN1 (11734609_at) / RFU RASL12 (11751679_a_at) / Fold change /veh RASL12 (11751679_a_at) / RFU CDKN2B (11736163_a_at) / Fold change /veh CDKN2B (11736163_a_at) / RFU PRF1 (11729649_at) / Fold change /veh PRF1 (11729649_at) / RFU, ZNF638 /// ZNF638-IT1 / Fold change vs veh, ZNF638 /// ZNF638-IT1 / RFU, PANK3 / Fold change vs veh, PANK3 / RFU, SH3YL1 / Fold change vs veh, SH3YL1 / RFU, ZEB2 / Fold change vs veh, ZEB2 / RFU, NRIP1 / Fold change vs veh, NRIP1 / RFU, PTTG1IP / Fold change vs veh, PTTG1IP / RFU, CAPN2 / Fold change vs veh, CAPN2 / RFU, MED14 / Fold change vs veh, MED14 / RFU, SNORA58 / Fold change vs veh, SNORA58 / RFU, C1orf63 / Fold change vs veh, C1orf63 / RFU, LRRFIP1 / Fold change vs veh, LRRFIP1 / RFU, NDUFAF7 / Fold change vs veh, NDUFAF7 / RFU, SLC12A2 / Fold change vs veh, SLC12A2 / RFU, IBTK / Fold change vs veh, IBTK / RFU, ESF1 / Fold change vs veh, ESF1 / Fold change vs veh, TMEM50B / RFU, TAOK1 / Fold change vs veh, TAOK1 / RFU, ACBD3 / Fold change vs veh, ACBD3 / RFU, TMA16 / Fold change vs veh, TMA16 / RFU, RWDD3 / Fold change vs veh, RWDD3 / RFU, BCAT1 / Fold change vs veh, BCAT1 / RFU, EDEM3 / Fold change vs veh, EDEM3 / RFU, TMEM33 / Fold change vs veh, TMEM33 / RFU, WDR75 / Fold change vs veh, WDR75 / RFU, AHCTF1 / Fold change vs veh, AHCTF1 / RFU, TFRC / Fold change vs veh, TFRC / RFU, ZDHHC17 / Fold change vs veh, ZDHHC17 / RFU, NOM1 / Fold change vs veh, NOM1 / RFU, ARL8B / Fold change vs veh, ARL8B / RFU, ZBTB11 / Fold change vs veh, ZBTB11 / RFU, TAMM41 / Fold change vs veh, TAMM41 / RFU, KIAA1704 /// LOC100996395 / Fold change vs veh, KIAA1704 /// LOC100996395 / RFU, ING1 / Fold change vs veh, ING1 / RFU, TRMT61B / Fold change vs veh, TRMT61B / RFU, FUBP3 / Fold change vs veh, FUBP3 / RFU, TP53 / Fold change vs veh, TP53 / RFU, TNKS2 / Fold change vs veh, TNKS2 / RFU, ZFP14 / Fold change vs veh, ZFP14 / RFU, ACTR2 / Fold change vs veh, ACTR2 / RFU, PPP3R1 / Fold change vs veh, PPP3R1 / RFU, PIK3R1 / Fold change vs veh, PIK3R1 / RFU, HNRNPA1 / Fold change vs veh, HNRNPA1 / RFU, RNF170 / Fold change vs veh, RNF170 / RFU, ZNF28 / Fold change vs veh, ZNF28 / RFU, RNGTT / Fold change vs veh, RNGTT / RFU, OGT / Fold change vs veh, OGT / RFU, BRD1 / Fold change vs veh, BRD1 / RFU, MARS / Fold change vs veh, MARS / RFU, ZNF655 / Fold change vs veh, ZNF655 / RFU, FAHD1 / Fold change vs veh, FAHD1 / RFU, BDP1 / Fold change vs veh, BDP1 / RFU, LRRCC1 / Fold change vs veh, LRRCC1 / RFU, ARID1A / Fold change vs veh, ARID1A / RFU, ZNF146 / Fold change vs veh, ZNF146 / RFU, ZNF330 / Fold change vs veh, ZNF330 / RFU, GPN3 / Fold change vs veh, GPN3 / RFU, C9orf123 / Fold change vs veh, C9orf123 / RFU, N4BP2L2 / Fold change vs veh, N4BP2L2 / RFU, ARFIP1 / Fold change vs veh, ARFIP1 / RFU, FAM179B / Fold change vs veh, FAM179B / RFU, BCL10 / Fold change vs veh, BCL10 / RFU, UHRF1BP1L / Fold change vs veh, UHRF1BP1L / RFU, BET1 / Fold change vs veh, BET1 / RFU, CNOT2 / Fold change vs veh, CNOT2 / RFU, ZNF268 / Fold change vs veh, ZNF268 / Fold change vs veh, ZNF507 / RFU, DGCR2 / Fold change vs veh, DGCR2 / RFU, WDSUB1 / Fold change vs veh, WDSUB1 / Fold change vs veh, HSP90B1 /// MIR3652 / RFU, ADSS / Fold change vs veh, ADSS / RFU, GK / Fold change vs veh, GK / RFU, ZNF148 / Fold change vs veh, ZNF148 / RFU, TAF9 / Fold change vs veh, TAF9 / RFU, SLC1A5 / Fold change vs veh, SLC1A5 / RFU, SLMO2 / Fold change vs veh, SLMO2 / RFU, ABCC4 / Fold change vs veh, ABCC4 / RFU, LOC101060439 /// RAP1B / Fold change vs veh, LOC101060439 /// RAP1B / RFU, RFX7 / Fold change vs veh, RFX7 / RFU, GTPBP10 / Fold change vs veh, GTPBP10 / RFU, CNEP1R1 / Fold change vs veh, CNEP1R1 / RFU, BIVM-ERCC5 /// ERCC5 / Fold change vs veh, BIVM-ERCC5 /// ERCC5 / RFU, ILF3 / Fold change vs veh, ILF3 / RFU 11762660_at / Fold change /veh 11762660_at / RFU VCAN (11757783_s_at) / Fold change /veh VCAN (11757783_s_at) / RFU DDX43 (11728927_at) / Fold change /veh DDX43 (11728927_at) / RFU KRT8 (11758188_x_at) / Fold change /veh KRT8 (11758188_x_at) / RFU NKD1 (11759106_at) / Fold change /veh NKD1 (11759106_at) / RFU SRD5A1 (11742802_a_at) / Fold change /veh SRD5A1 (11742802_a_at) / RFU TPSAB1 /// TPSB2 (11721975_s_at) / Fold change /veh TPSAB1 /// TPSB2 (11721975_s_at) / RFU GSTM3 (11746129_a_at) / Fold change /veh GSTM3 (11746129_a_at) / RFU IL23R (11737362_x_at) / Fold change /veh IL23R (11737362_x_at) / RFU TMEM51 (11727254_a_at) / Fold change /veh TMEM51 (11727254_a_at) / RFU PIWIL2 (11732686_x_at) / Fold change /veh PIWIL2 (11732686_x_at) / RFU ORM1 (11744905_x_at) / Fold change /veh ORM1 (11744905_x_at) / RFU CCDC152 (11743942_at) / Fold change /veh CCDC152 (11743942_at) / RFU ECM1 (11717891_a_at) / Fold change /veh ECM1 (11717891_a_at) / RFU IL23R (11748794_a_at) / Fold change /veh IL23R (11748794_a_at) / RFU TNFAIP8L3 (11732012_x_at) / Fold change /veh TNFAIP8L3 (11732012_x_at) / RFU MBOAT4 (11741988_at) / Fold change /veh MBOAT4 (11741988_at) / RFU 11764193_at / Fold change /veh 11764193_at / RFU TMEM53 (11763286_at) / Fold change /veh TMEM53 (11763286_at) / RFU MAGEB2 (11727129_at) / Fold change /veh MAGEB2 (11727129_at) / RFU TMEM200A (11744735_a_at) / Fold change /veh TMEM200A (11744735_a_at) / RFU CCDC152 (11751479_a_at) / Fold change /veh CCDC152 (11751479_a_at) / RFU FAM211A (11726209_a_at) / Fold change /veh FAM211A (11726209_a_at) / RFU RGS16 (11746705_a_at) / Fold change /veh RGS16 (11746705_a_at) / RFU VCAN (11755009_s_at) / Fold change /veh VCAN (11755009_s_at) / RFU RHOB (11743442_s_at) / Fold change /veh RHOB (11743442_s_at) / RFU RGS16 (11720943_a_at) / Fold change /veh RGS16 (11720943_a_at) / RFU RGS16 (11720944_at) / Fold change /veh RGS16 (11720944_at) / RFU, VPS4B / Fold change vs veh, VPS4B / RFU, CREB1 / Fold change vs veh, CREB1 / RFU, DNAJC13 / Fold change vs veh, DNAJC13 / RFU, GNAQ / Fold change vs veh, GNAQ / RFU, CDK5R1 / Fold change vs veh, CDK5R1 / RFU, ZRANB3 / Fold change vs veh, ZRANB3 / RFU, CUL4A / Fold change vs veh, CUL4A / RFU, CCNY / Fold change vs veh, CCNY / RFU, UFL1 / Fold change vs veh, UFL1 / RFU, COG3 / Fold change vs veh, COG3 / RFU, DIAPH2 / Fold change vs veh, DIAPH2 / RFU, SKA2 / Fold change vs veh, SKA2 / RFU, AFF3 / Fold change vs veh, AFF3 / RFU, LMF1 / Fold change vs veh, LMF1 / RFU, IPO11 / Fold change vs veh, IPO11 / RFU, DFFB / Fold change vs veh, DFFB / RFU, FOXP1 / Fold change vs veh, FOXP1 / RFU, CARD8 / Fold change vs veh, CARD8 / RFU, STRN3 / Fold change vs veh, STRN3 / RFU, ADK / Fold change vs veh, ADK / RFU, RASSF2 / Fold change vs veh, RASSF2 / RFU, WIPF1 / Fold change vs veh, WIPF1 / RFU, LARP1B / Fold change vs veh, LARP1B / RFU, RASA1 / Fold change vs veh, RASA1 / RFU, RB1 / Fold change vs veh, RB1 / RFU, PPFIA1 / Fold change vs veh, PPFIA1 / RFU, MAT2A / Fold change vs veh, MAT2A / RFU, CCT5 / Fold change vs veh, CCT5 / RFU, WDR92 / Fold change vs veh, WDR92 / RFU, CUX1 / Fold change vs veh, CUX1 / RFU, TTC7A / Fold change vs veh, TTC7A / RFU, TMEM135 / Fold change vs veh, TMEM135 / RFU, DEPTOR / Fold change vs veh, DEPTOR / RFU, CPM / Fold change vs veh, CPM / RFU, DNAJB6 / Fold change vs veh, DNAJB6 / RFU, CACNA2D3 / Fold change vs veh, CACNA2D3 / RFU, DTX4 / Fold change vs veh, DTX4 / RFU, TFCP2 / Fold change vs veh, TFCP2 / RFU, GMCL1 /// GMCL1P1 / Fold change vs veh, GMCL1 /// GMCL1P1 / RFU, AEBP2 / Fold change vs veh, AEBP2 / RFU, SNHG1 /// SNORD22 /// SNORD25 /// SNORD26 /// SNORD27 /// SNORD28 /// SNORD29 /// SNORD31 / Fold change vs veh, SNHG1 /// SNORD22 /// SNORD25 /// SNORD26 /// SNORD27 /// SNORD28 /// SNORD29 /// SNORD31 / Fold change (Aza/veh), C12orf56 (ProbeSet 11735607_a_at) / Fold change (ACY-1035/veh), C12orf56 (ProbeSet 11735607_a_at) / Fold change (Aza/veh), FGFR1OP (ProbeSet 11751329_s_at) / Fold change (ACY-1035/veh), FGFR1OP (ProbeSet 11751329_s_at) / Fold change (Aza/veh), VPS36 (ProbeSet 11739960_a_at) / Fold change (ACY-1035/veh), VPS36 (ProbeSet 11739960_a_at) / RFU SYPL1 (11715823_x_at) / Fold change /veh SYPL1 (11715823_x_at) / RFU IGFBP7 (11715501_s_at) / Fold change /veh IGFBP7 (11715501_s_at) / RFU REEP3 (11722064_at) / Fold change /veh REEP3 (11722064_at) / RFU IGLL1 (11728026_x_at) / Fold change /veh IGLL1 (11728026_x_at): dose or concentration left out as unconfirmed
Details: MV-4-11 cells, 48 hours

SMILES: Nc1ncn([C@@H]2O[C@H](CO)[C@@H](O)[C@H]2O)c(=O)n1 [azacitidine]
- Fold change /veh TMEM200A (11744735_a_at): 1.56
